# Experimental data from patent publication US9096643B2, “Cell-protective peptides and uses thereof” (priority 2010, dated 2015).
# No end group written: not given here.
# Assays:
# [1] = system: neonatal rat CMs (heart cells); assay: Preliminary 3D cell encapsulation studies in hydrogels; type: cell-based, rat (Sprague-Dawley); details: encapsulated, 1 to 4 days of 3D culture
# Method: The lyophilized form of the peptide-modified Az-chitosan was dissolved in sterile 0.9% saline at 12 mg/mL. CMs (2.5×10^6) were suspended in 15 μL of CM culture media with 30% serum for 15 minutes on ice. These cells were then suspended in 35 μL of the hydrogel and crosslinked in the transwell inserts of the 96 well plates. The cells were cultivated in the CM culture medium with 10% FBS for up to 4 days.
# [2] = system: neonatal rat CMs (heart cells); assay: Heart cell attachment on peptide-modified Az-chitosan coated coverslips (brightfield cell counts); type: cell-based, rat (Sprague-Dawley); details: coated glass coverslips, 1, 3 and 5 days of incubation, FIG. 1
# Method: Neonatal (1 to 2 day-old) Sprague-Dawley rats were euthanized according to the procedure approved by the University of Toronto Committee on Animal Care. […] The supernatant from 5 collagenase digests of the tissues was collected and centrifuged at 750 rpm (94 g) for 4 min, resuspended in culture medium and pre-plated into T75 flasks (Falcon) for 1 hour to separate the non-adherent cells (enriched CMs) from the adherent cells (non-myocytes). The enriched CMs were used in the studies. The CM culture medium consisted of Dulbecco's Modified Eagle Medium (DMEM) with 4.5 g/L glucose, 4 mM L-glutamine, 10% certified fetal bovine serum (FBS), 100 U/mL penicillin, 100 μg/mL streptomycin, and 10 mM 4-2-hydroxyethyl-1-piperazineethanesulfonic acid buffer (HEPES, Gibco/Invitrogen).
# The surfaces used for microscopy analysis were created on circular 12 mm diameter glass coverslips (VWR). These were plasma treated (WS-400BZ-6NPP/Lite, Laurell Technologies) for 30 s. […]
# The day before cells were ready to be seeded, the surfaces in the 12-well plates were sterilized by germicidal UV illumination overnight. […]
# Brightfield images were taken with 10× magnification of surfaces with cells (N=3) to visualize the morphology and cell attachment (IX81, Olympus). […] The number of cells was then counted using the cell counting plug-in on ImageJ (NIH version 1.36b).
# [3] = system: Rat neonatal cardiomyocytes; assay: ATP assay (CellTiter-Glo) in serum-starved cardiomyocytes; type: cell-based; details: 1 d
# Method: Rat neonatal cardiomyocytes were incubated with PBS (control), 500 μM QHREDGS, scrambled QHREDGS peptide, GRGDSP peptide or 400 nM ang 1 or ang2 in DMEM/0.5% BSA/cytosine-β-D-arabinofuranoside (37° C., 5% CO2, 1 d). ATP levels were quantified using the CellTiter-Glo Luminescent Assay (Promega) as per manufacturer's instructions (N=6/group). Luminescence was measured using a Wallac 1420 microplate reader.
# human iPS cells BJ1D = assay: iPS colony formation / cloning efficiency after complete dissociation at clonal density; type: cell-based; details: 50 μM, trypsinized, clonal density, one week, FIG. 13A
# Method: (§1) The human iPS cells (BJ1D and 0901B) were obtained from the Ontario iPSC Facility and used following the hiPS cell research guidelines of the University of Toronto as described by Hotta et al. Nat. Protoc. 4, 1828-1844 (2009)), unless specified otherwise. Cells were cultured on a feeder layer of MEF cells (Mount Sinai Hospital Toronto, inactivated with 10 μg/ml mitomycin C and seeded at 1.8×10^5 per 3.5 cm dish). For single cell cultures, hiPS cell colonies were dissociated in 0.25% Trypsin-EDTA (Invitrogen) for 5 min, followed by trituration with a pipette. To ensure a single-cell suspension, the dissociated cells were passed through a 40 μm cell strainer (BD Falcon) and seeded onto MEF plates at 10 cells/ml, 10 cm plates. Cells were allowed to grow for 7 days and the total number of colonies was counted. In the treated groups, QHREDGS (Biomatik) or DGQESHR (Biomatik) dissolved in PBS (Lonza), were added at the reported concentrations to culture media at the onset of the first treatment passage and replenished with each media change. Media was changed by 100% every day. Peptides and controls were included during dissociation and passaging. Cells were analyzed after 5 passages in continuous treatment with 50 μM QHREDGS, 50 μM DGQESHR, or PBS, unless specified otherwise.
# (§2) iPS cells, BJ1D or 0901B were treated with 50 μM of QHREDGS peptide, or 50 μM DGQESHR scrambled peptide in PBS with a PBS treated control for five passages as a preparation for passage by trypsin. Cells were trypsinized and plated at a clonal density of 10 cells/ml for one week and the number of colonies were counted.
# (§3) After 5 passages in pre-treatment with 50 μM QHREDGS, or controls and complete dissociation (trypsinized), human iPS cells, BJ1D or 0901B cells, were plated on a mouse embryonic fibroblast (MEF) feeder layer at low density (100 cells/plate, 10 cm plate) in maintenance medium containing 50 μM QHREDGS, PBS, or 50 μM DGQESHR scrambled peptide. After one-week in culture, untreated or DGQESHR (scrambled peptide) treated groups generated few colonies, whereas QHREDGS treated groups for both BJ1D or 0901B cells produced many large colonies (˜15 times more than the controls) (see FIG. 13A/B, respectively). The colonies were positive for Oct4, a marker for the undifferentiated state. The cloning efficiency, based on ratio of Oct4+ colonies formed per initially seeded human iPS cells, was 27+/−7.1% and 2.5+/−0.6% for BJ1D and 48+/−9.4% and 22.3+/−1.9 for 0901B in the presence and absence of QHREDGS, respectively. […] Thus, treatment with QHREDGS supports single-cell culture of human iPS cells through the promotion of colony formation.
# human iPS cells 0901B = assay: as above; type: cell-based; details: 50 μM, trypsinized, clonal density, one week, FIG. 13B
# Method: as §1, §2, §3
# [4] = system: neonatal rat cardiomyocytes; assay: Cardiomyocyte encapsulation in chitosan hydrogels, live/dead staining after 6 days; type: cell-based; details: peptide conjugated to Az-chitosan hydrogel, in vitro cultivation
# Method: The lyophilized form of the peptide-modified Az-chitosan (Az-chitosan-QHREDGS or Az-chitosan-RGDS) was dissolved in sterile 0.9% PBS at 12 mg/mL. Cardiomyocytes (2.5×10^6) were suspended in 15 μL 30% FBS-containing culture medium for 15 min. on ice. These cells were further suspended in 35 μL of the hydrogel. This mixture was placed on a 12 mm diameter glass coverslip, which was placed on a UV lamp (UVP, 365 nm, 1 mW/cm^2 at 3″ distance, 115 V, 60 Hz, 0.16 Amp) and exposed to UV light for 5 min. The samples were then transferred to a 12 well plate and supplemented with 2 mL of warm cardiomyocyte culture media.
# Live/dead staining was performed using 5-carboxyfluorescein diacetate acetoxymethly ester, which stains live cells green, and propidium iodide, which stains dead cells red according to the manufacturer's instruction (Invitrogen). Three sets of surfaces were analyzed for each sample type.
# [5] = system: Rat neonatal cardiomyocytes; assay: Hydrogen peroxide treatment, Trypan blue viability (monolayer); type: cell-based; details: 200 nM ang 1 1.5 hr, 100 μM H2O2 10 min, FIG. 5A
# Method: Rat neonatal cardiomyocytes were incubated for 1.5 hr with 500 μM QHREDGS, scrambled (scram) QHREDGS peptide (DGQESHR), or PBS control (PBS); 200 nM ang 1 or its matched buffer control [0.1% bovine serum albumin (BSA) in PBS] in the culture medium. The culture medium consisted of Dulbecco's Modified Eagle's Medium (DMEM) with 0.5% BSA and cytosine-β-D-arabinofuranoside (anti-proliferative). Reactive oxygen species were increased by addition of 100 μM H2O2 for 10 min (37° C., 5% CO2) (N=6/group). Cell viability was measured using a Trypan blue stain. Trypan blue dye is impermeable to viable cells, but enters dead/damaged cells with impaired membrane integrity, staining cells blue.
molecule,measurement,setting,value
"Az-chitosan-DGQESHR: scrambled QHREDGS peptide conjugated to Az-chitosan (also: conjugated to Az-chitosan, site not given here) [reference compound]",heart cell survival and elongation in 3D hydrogel,[1],a large number of dead round cells
same,cell adhesion / cell attachment to coated surface,[2],did not have the same attachment results
"DGQESHR [scrambled QHREDGS peptide control, reference compound]",cardiac myocyte ATP levels,[3]; 500 μM peptide,no such effect
same,number of colonies,human iPS cells BJ1D,few colonies
same,number of colonies,human iPS cells 0901B,few colonies
QHREDGS (angiopoietin 1 peptide),syncytium formation of encapsulated cardiomyocytes,[4],formation of a dense syncytium
"GRGDSP [RGD-based peptides, reference compound]",cardiac myocyte ATP levels,[3]; 500 μM peptide,no such effect
"Angiopoietin 1 (protein, UniProt Q15389 1-498, looked up, full-length, full length parent protein of QHREDGS) MTVFLSFAFLAAILTHIGCSNQRRSPENSGRRYNRIQHGQCAYTFILPEHDGNCRESTTDQYNTNALQRDAPHVEPDFSSQKLQHLEHVMENYTQWLQKLENYIVENMKSEMAQIQQNAVQNHTATMLEIGTSLLSQTAEQTRKLTDVETQVLNQTSRLEIQLLENSLSTYKLEKQLLQQTNEILKIHEKNSLLEHKILEMEGKHKEELDTLKEEKENLQGLVTRQTYIIQELEKQLNRATTNNSVLQKQQLELMDTVHNLVNLCTKEGVLLKGGKREEEKPFRDCADVYQAGFNKSGIYTIYINNMPEPKKVFCNMDVNGGGWTVIQHREDGSLDFQRGWKEYKMGFGNPSGEYWLGNEFIFAITSQRQYMLRIELMDWEGNRAYSQYDRFHIGNEKQNYRLYLKGHTGTAGKQSSLILHGADFSTKDADNDNCMCKCALMLTGGWWFDACGPSNLNGMFYTAGQNHGKLNGIKWHYFKGPSYSLRSTTMMIRPLDF",cardiac myocyte ATP levels,[3]; 400 nM protein,substantially increased
same,cardiomyocyte viability after exposure to H2O2,[5],maintain cardiomyocyte viability
"ang2: ang2 protein comparator in the ATP assay (protein, UniProt O15123 19-496, looked up) Angiopoietin-2: YNNFRKSMDSIGKKQYQVQHGSCSYTFLLPEMDNCRSSSSPYVSNAVQRDAPLEYDDSVQRLQVLENIMENNTQWLMKLENYIQDNMKKEMVEIQQNAVQNQTAVMIEIGTNLLNQTAEQTRKLTDVEAQVLNQTTRLELQLLEHSLSTNKLEKQILDQTSEINKLQDKNSFLEKKVLAMEDKHIIQLQSIKEEKDQLQVLVSKQNSIIEELEKKIVTATVNNSVLQKQQHDLMETVNNLLTMMSTSNSAKDPTVAKEEQISFRDCAEVFKSGHTTNGIYTLTFPNSTEEIKAYCDMEAGGGGWTIIQRREDGSVDFQRTWKEYKVGFGNPSGEYWLGNEFVSQLTNQQRYVLKIHLKDWEGNEAYSLYEHFYLSSEELNYRIHLKGLTGTAGKISSISQPGNDFSTKDGDNDKCICKCSQMLTGGWWFDACGPSNLNGMYYPQRQNTNKFNGIKWYYWKGSGYSLKATTMMIRPADF",cardiac myocyte ATP levels,[3]; 400 nM protein,no such effect
